Assay results as given in ChEMBL document CHEMBL1201862, “PubChem BioAssay data set” (2004).
The source made the active and inactive calls.

How the values were obtained:
[1] = target: T1, Protein skinhead-1 (Caenorhabditis elegans, UniProt P34707); format: functional
T1 sequence (P34707 whole entry): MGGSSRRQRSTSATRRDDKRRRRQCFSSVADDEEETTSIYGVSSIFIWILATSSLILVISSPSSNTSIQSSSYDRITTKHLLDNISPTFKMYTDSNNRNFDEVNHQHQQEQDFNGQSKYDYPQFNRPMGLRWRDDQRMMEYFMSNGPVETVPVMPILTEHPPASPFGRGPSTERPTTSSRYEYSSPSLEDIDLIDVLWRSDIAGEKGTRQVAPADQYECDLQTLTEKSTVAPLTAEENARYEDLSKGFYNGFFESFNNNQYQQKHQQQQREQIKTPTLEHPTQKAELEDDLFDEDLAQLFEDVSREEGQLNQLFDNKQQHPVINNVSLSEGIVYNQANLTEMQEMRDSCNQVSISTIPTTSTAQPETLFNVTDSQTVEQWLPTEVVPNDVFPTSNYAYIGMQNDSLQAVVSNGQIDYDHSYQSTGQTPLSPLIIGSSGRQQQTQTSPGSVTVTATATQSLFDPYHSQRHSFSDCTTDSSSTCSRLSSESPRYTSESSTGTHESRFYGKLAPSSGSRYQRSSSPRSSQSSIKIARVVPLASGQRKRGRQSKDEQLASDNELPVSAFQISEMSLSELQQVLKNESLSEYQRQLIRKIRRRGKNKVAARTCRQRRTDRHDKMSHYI

[2] = target: T2, Sentrin-specific protease 8 (Homo sapiens, UniProt Q96LD8); format: functional;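 note: luminescence read-out of SENP8 inhibition, dose-response confirmation following an ultra-high-throughput screen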
T2 sequence (Q96LD8 whole entry): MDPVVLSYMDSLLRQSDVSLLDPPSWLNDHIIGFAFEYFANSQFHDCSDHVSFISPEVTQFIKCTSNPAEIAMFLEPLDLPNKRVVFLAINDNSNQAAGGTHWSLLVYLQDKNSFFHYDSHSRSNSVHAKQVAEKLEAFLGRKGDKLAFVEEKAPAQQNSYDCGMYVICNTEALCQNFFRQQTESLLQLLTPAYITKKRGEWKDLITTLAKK

[3] = target: T3, Caspase-3 (Homo sapiens, UniProt P42574); format: functional;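 note: Dose-response selectivity test against caspase-3 for candidate inhibitors of sentrin-specific proteases (SENPs)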
T3 sequence (P42574 whole entry): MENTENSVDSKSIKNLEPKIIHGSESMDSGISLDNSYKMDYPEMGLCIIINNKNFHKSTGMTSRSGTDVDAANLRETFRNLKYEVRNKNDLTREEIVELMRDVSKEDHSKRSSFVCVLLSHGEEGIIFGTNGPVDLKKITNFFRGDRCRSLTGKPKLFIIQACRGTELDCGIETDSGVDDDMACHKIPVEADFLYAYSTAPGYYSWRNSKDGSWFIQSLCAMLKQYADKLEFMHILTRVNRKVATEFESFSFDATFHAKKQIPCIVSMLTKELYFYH

[4] = target: T4, Sentrin-specific protease 7 (Homo sapiens, UniProt Q9BQF6); format: functional;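 note: Luminescence-based dose-response confirmation of ultra-high-throughput screening hits, measuring inhibition of SENP7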
T4 sequence (Q9BQF6 whole entry): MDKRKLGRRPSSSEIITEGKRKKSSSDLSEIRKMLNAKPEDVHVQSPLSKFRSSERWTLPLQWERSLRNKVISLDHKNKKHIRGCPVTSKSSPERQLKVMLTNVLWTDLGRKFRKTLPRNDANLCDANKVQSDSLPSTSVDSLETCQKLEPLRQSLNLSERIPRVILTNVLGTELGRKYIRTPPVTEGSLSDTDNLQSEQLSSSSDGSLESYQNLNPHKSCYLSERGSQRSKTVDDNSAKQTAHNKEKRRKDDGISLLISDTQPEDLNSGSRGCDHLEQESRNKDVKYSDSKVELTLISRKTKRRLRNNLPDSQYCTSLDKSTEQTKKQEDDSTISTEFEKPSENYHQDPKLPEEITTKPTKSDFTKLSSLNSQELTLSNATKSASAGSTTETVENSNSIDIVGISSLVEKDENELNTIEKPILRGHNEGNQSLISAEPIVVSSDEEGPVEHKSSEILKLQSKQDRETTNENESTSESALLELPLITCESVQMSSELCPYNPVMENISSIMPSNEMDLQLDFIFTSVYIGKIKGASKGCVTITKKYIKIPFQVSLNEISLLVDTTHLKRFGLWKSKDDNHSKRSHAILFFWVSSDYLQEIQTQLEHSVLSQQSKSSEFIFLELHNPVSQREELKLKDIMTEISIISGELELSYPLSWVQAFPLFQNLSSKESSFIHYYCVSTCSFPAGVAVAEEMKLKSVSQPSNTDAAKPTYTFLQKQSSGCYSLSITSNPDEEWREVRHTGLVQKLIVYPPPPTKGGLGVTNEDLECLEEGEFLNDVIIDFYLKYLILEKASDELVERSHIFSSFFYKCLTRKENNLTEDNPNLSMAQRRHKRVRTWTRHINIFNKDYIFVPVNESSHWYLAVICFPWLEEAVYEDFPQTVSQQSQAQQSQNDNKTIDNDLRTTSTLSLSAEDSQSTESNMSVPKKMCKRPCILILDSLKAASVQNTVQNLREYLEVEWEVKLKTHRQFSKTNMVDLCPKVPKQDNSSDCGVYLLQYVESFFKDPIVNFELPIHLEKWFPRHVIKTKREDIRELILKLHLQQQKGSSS

[5] = target: T5, Sentrin-specific protease 6 (Homo sapiens, UniProt Q9GZR1); format: functional;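 note: Luminescence-based dose-response confirmatory assay of SENP6 inhibition, following up an ultra-high-throughput screen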
T5 sequence (Q9GZR1 whole entry): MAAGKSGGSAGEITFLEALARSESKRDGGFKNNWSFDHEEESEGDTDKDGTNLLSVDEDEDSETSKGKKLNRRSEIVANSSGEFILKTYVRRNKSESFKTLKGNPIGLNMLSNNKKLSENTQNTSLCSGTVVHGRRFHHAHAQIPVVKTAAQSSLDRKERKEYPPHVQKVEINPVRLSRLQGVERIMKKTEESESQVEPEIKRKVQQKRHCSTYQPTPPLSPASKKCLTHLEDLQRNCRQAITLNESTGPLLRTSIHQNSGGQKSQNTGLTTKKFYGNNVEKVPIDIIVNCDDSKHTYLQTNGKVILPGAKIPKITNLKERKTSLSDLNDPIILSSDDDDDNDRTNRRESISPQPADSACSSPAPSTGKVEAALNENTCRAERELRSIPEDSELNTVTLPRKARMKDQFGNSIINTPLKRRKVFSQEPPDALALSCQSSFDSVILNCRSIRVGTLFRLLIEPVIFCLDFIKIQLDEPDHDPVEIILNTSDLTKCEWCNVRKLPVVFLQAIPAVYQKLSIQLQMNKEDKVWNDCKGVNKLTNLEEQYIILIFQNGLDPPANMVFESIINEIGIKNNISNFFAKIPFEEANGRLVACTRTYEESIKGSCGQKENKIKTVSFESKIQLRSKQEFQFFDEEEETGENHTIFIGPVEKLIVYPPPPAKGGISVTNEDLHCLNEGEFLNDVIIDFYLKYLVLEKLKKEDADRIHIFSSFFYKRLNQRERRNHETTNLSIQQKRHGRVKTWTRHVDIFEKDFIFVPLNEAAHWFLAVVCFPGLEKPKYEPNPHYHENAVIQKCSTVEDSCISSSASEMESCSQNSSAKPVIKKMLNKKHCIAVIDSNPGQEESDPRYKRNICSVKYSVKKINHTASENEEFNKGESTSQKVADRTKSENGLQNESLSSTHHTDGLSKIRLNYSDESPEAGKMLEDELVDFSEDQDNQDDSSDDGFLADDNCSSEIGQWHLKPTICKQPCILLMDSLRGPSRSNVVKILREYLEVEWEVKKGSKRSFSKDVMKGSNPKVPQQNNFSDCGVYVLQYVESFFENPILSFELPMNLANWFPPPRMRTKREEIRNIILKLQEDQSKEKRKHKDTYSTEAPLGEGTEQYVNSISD

[6] = system: CHO; assay: cytotoxicity in TLR9-MyD88 CHO cells, dose response, cytotoxicity control for TLR9-MyD88 binding inhibitor project, cell-based, luminescence (AID 588339); format: functional, hamster; conditions: Cricetulus griseus;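 note: CHO cells stably coexpressing TLR9 and MyD88 fusions from primary screen; compound exposure lasted 48 hours before viability readout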
[7] = target: Glucose-6-phosphate 1-dehydrogenase (Homo sapiens, UniProt P11413); assay: human G6PD enzyme inhibitors, dose response, selectivity assay for P. falciparum G6PD inhibitor project, biochemical, fluorescence (AID 504792); format: functional
Chain of Glucose-6-phosphate 1-dehydrogenase (P11413 whole entry): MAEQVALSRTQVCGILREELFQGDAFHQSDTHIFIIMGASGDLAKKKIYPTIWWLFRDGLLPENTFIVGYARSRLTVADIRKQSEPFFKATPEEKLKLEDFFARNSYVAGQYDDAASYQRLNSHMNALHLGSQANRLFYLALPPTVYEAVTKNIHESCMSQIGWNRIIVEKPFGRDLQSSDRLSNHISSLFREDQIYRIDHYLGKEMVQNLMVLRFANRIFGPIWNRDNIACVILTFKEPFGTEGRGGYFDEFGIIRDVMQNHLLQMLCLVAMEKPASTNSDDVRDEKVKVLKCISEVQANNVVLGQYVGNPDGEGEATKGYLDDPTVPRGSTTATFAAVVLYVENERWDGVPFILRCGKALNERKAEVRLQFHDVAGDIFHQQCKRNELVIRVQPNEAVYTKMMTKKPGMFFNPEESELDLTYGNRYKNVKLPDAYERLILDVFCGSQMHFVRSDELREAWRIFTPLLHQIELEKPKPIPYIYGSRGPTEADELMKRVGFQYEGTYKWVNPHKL

[8] = target: Beta Lactamase (Pseudomonas aeruginosa, UniProt Q932Y6); assay: beta-lactamase reporter inhibitor potency, dose response, artefact control for TLR9-MyD88 binding inhibitor project, BLA reporter cells, FRET fluorescence (AID 588341); format: cell-based;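 note: cell based assay in CHO-K1 cells stably expressing beta-lactamase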
Chain of Beta Lactamase (Q932Y6 whole entry): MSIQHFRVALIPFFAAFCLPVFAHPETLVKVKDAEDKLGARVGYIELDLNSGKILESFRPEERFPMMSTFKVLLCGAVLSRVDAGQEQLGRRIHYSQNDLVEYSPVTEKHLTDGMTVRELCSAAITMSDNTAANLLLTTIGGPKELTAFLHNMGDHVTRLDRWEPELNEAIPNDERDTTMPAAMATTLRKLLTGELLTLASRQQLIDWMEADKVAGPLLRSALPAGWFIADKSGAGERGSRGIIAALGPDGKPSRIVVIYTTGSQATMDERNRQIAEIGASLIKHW

[9] = target: Heat shock protein HSP 90-alpha (Homo sapiens, UniProt P07900); format: functional, organism-based
[10] = system: BJ; assay: cytotoxicity toward BJ-TERT fibroblasts, dose response, cell-based, RAS-independent, luminescence (AID 1933); format: functional; conditions: Homo sapiens
[11] = system: BJ; assay: cytotoxicity toward Ras-transformed BJeLR fibroblasts, dose response, cell-based, alamar blue fluorescence, cherrypicked samples (AID 2631); format: functional; conditions: Homo sapiens;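 note: confirmatory dose-response assay in RAS-dependent BJ fibroblasts engineered with TERT, LT and ST, with cytotoxicity read by fluorescence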
[12] = cytotoxicity toward DRD oncogenic fibroblasts, dose response, cell-based, non-viral oncogenic, luminescence (AID 1934); format: functional; conditions: Homo sapiens
[13] = Shn3 3'UTR reporter inhibitors, dose response, cell-based, Clone20 osteoblasts, firefly luciferase, cherry-picked (AID 624132); format: functional;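 note: firefly luciferase luminescence from reporter carrying the Shn3 3'UTR in osteoblasts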
[14] = system: INS1; assay: beta cell apoptosis inhibitors, cytokine rescue, dose response, luminescence, retest (AID 449756); format: functional, cell-based; conditions: Rattus norvegicus;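 note: cell death triggered by IL-1 beta plus TNF-alpha plus IFN-gamma mixture; protective hits raise ATP signal compared with cytokine alone wells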
[15] = system: BJ; assay: cells; format: functional, cell-based; conditions: Homo sapiens
[16] = system: BJ; assay: cytotoxicity toward BJ-TERT-LT-ST fibroblasts, dose response, cell-based, RAS-independent, luminescence (AID 1935); format: functional; conditions: Homo sapiens;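 note: BJ fibroblasts immortalized with TERT plus LT and ST oncogenes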
[17] = control 3'UTR Renilla luciferase suppression, dose response, counter-screen for Shn3 inhibitor project, cell-based, Clone20-Shn3RL, cherry-picked (AID 624133); format: functional
[18] = HepG2 cell cytotoxicity, dose response, cytotoxicity control for Shn3 inhibitor project, CellTiter-Glo, cherry-picked (AID 624134); format: functional, cell-based
[19] = system: P388; assay: cells; format: functional; conditions: Mus musculus
[20] = system: SN12K1; assay: cells; format: functional; conditions: Homo sapiens
[21] = system: P388/ADR; assay: cells; format: functional; conditions: Mus musculus
[22] = system: Streptococcus sp. 'group A'; assay: growth inhibition of control SK(-) GAS strain, dose response, counter-screen for streptokinase expression inhibitor project, luminescence, kanamycin, BacTiterGlo, confirmation (AID 1900); format: functional, organism-based
[23] = target: T6, Streptokinase A (Streptococcus pyogenes serotype M1, UniProt P10520); assay: S. pyogenes streptokinase expression inhibitors, potency, dose response, plasminogen activation absorbance, OD405 (AID 1914); format: functional, Streptococcus pyogenes M1 GAS;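 note: secreted streptokinase activity via plasminogen activation per viability signal from cell pellet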
T6 sequence (P10520 whole entry): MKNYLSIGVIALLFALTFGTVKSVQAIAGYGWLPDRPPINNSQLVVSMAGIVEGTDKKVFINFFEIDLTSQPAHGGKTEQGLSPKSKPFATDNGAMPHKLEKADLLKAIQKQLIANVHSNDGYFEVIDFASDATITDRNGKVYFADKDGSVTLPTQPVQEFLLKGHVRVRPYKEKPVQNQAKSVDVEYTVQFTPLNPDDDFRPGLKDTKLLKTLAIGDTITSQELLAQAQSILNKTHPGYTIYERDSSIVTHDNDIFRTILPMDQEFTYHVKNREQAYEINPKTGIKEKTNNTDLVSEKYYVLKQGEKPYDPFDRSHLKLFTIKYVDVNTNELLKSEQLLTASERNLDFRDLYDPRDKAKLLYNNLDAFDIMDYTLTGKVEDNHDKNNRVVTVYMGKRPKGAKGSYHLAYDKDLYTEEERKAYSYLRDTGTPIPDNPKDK

[24] = system: Streptococcus; assay: Group A Streptococcus viability loss, dose response, counter-screen for streptokinase expression inhibitor project, luminescence, BacTiterGlo (AID 1915); format: functional, organism-based;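 note: potency for reduction of bacterial viability or growth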

SMILES | IC50 [2] | IC50 [3] | IC50 [4] | IC50 [5] | GI50 [19] | GI50 [20] | GI50 [21] | further results
CCCOC(=O)c1ccc(NC(=O)/C=C/c2cccs2)cc1 | 70.2 µM (active) | 62.9 µM (active) | 12.9 µM (active) | 69.7 µM (active) |  |  |  | IC50 [1]: > 100 µM (inactive)
CC(=O)Nc1ccc2c(c1)Cc1cc(N3C(=O)C=CC3=O)ccc1-2 |  |  |  |  |  |  |  | IC50 [6]: 1.86 µM (active); IC50 [7]: > 80 µM (inactive); IC50 [8]: 7.23 µM (active); AC50 [9]: 0.68 µM (active)
Cc1cccc(NC(=O)/C=C/c2ccc([N+](=O)[O-])s2)c1 |  |  |  |  |  |  |  | EC50 [10]: 4.95 µM (inconclusive); EC50 [11]: 0.531 µM (active); EC50 [12]: 4.68 µM (active); AC50 [13]: 3.29 µM (active); AC50 [14]: 7.91 µM (active); EC50 [15]: 15.7 µM (active); EC50 [16]: 4.67 µM (inconclusive); AC50 [17]: 13.5 µM (active); AC50 [18]: 9.74 µM (active)
Nc1c(S(=O)(=O)O)cc(S(=O)(=O)O)c2ccc(/N=N/c3ccc(/C=C/c4ccc(/N=N/c5ccc6c(S(=O)(=O)O)cc(S(=O)(=O)O)c(N)c6c5O)cc4S(=O)(=O)O)c(S(=O)(=O)O)c3)c(O)c12 |  |  |  |  | 73.5 µM (inactive) | > 100 µM (inactive) |  | 
CCOC(=O)c1cc2ccc3ccccc3c2s1 | > 100 µM (inactive) | 49.5 µM (active) | 10.5 µM (active) | 70.9 µM (active) |  |  |  | 
CCOC(=O)CCc1c(C)c2c(O)cc(O)cc2oc1=O |  |  |  |  | 3.77 µM (inactive) | > 94.2 µM (inactive) | 14 µM (inactive) | 
N/C(=N\O)N/N=C/c1ncccc1O |  |  |  |  | 1.67 µM (inactive) | 3.52 µM (inactive) | 1.52 µM (inactive) | 
N/C(S)=N/N=C/c1ncccc1O |  |  |  |  | 0.347 µM (active) | 0.382 µM (active) | 0.366 µM (active) | 
Cc1cccc(NCc2nc3ccccc3n2Cc2ccccc2)c1 | 54.9 µM (active) | 44.6 µM (active) | 12.7 µM (active) | 37.7 µM (active) |  |  |  | EC50 [22]: 8.81 µM (active); EC50 [23]: > 150 µM (not active); EC50 [24]: > 150 µM (not active)
Cc1ccc(Nc2ncnc3c2oc2ccccc23)cc1 | > 100 µM (inactive) | 28 µM (active) | 5.1 µM (active) | > 100 µM (inactive) |  |  |  | 
